In US3937838A, “Orally active bronchospasmolytic compounds and their preparation” (priority 1966, dated 1976):
Where two headings read alike, the source gives them in different places.

Experiments:
guinea pig trachea = assay: Bronchospasmolytic effect in vitro (Example 13); conditions: for bronchospasmolytic effect x (-)epinephrine: based on ED50-values, weight basis, Table 7; for bronchospasmolytic effect in vitro relative to terbutaline: per se
Description: The trachea from a guinea pig was dissected out and spirally cut. It was mounted in a water-jacketed bath (37°C.) in Krebs solution and aerated with oxygen (95%) and carbon dioxide (5%). Pilocarpine (2 μg/ml) was added. The load was adjusted to about 2 g and relaxations in the trachea were recorded by means of a Grass force displacement transducer and a Grass polygraph model 5 (see Example 5 above). The cumulative method was used (-)-Epinephrine was used as reference. The comparisons presented in Table 7 are based on ED50 -values.

[1] = system: histamine-induced bronchospasm; assay: Bronchospasmolytic effect in the anesthetized cat, Konzett & Rossler (Example 14); type: in vivo; conditions: i.v.; based on ED50-values; weight basis; Table 8
Description: Bronchospasmolytic effect was studied according to the method of Konzett & Rossler (see Example 5b above). Bronchospasm was induced by i.v. injections of histamine into the left jugular vein. Overflow was recorded by means of a Grass volume transducer and a Grass polygraph model 5. Changes in arterial mean pressure and heart rate, were continuously recorded during the experiment. Terbutaline was used as reference in all experiments. The comparisons are based on ED50 -values.

[2] = system: bronchoconstriction by histamine aerosol; assay: Protecting effect against histamine aerosol in guinea pigs (Example 15); type: in vivo, guinea pig; conditions: for ED50: Cavia porcellus, read-out: ED50 (protecting 50 percent of the animals for more than 4 minutes)
Source text: Male guinea pigs (200--300 g) were used. Bronchoconstriction was produced by letting the animals inhale a histamine aerosol.

[3] = system: isolated guinea pig heart; assay: Effect on isolated heart from guinea pig, Langendorff (Example 16); conditions: for direct heart effect relative to terbutaline: per se
Description: The isolated guinea pig heart was perfused according to Langendorff. The method used is described by Anden et al. [Acta Pharmacol. et Toxicol. 21, 247, (1964)]. Contractions in the heart were recorded by a force displacement transducer and a Grass polygraph model 5. The recovery of the heart was tested with (-) epinephrine between every dose of the substance tested. Terbutaline was used as reference.

[4] = system: arterial mean pressure, pulse pressure, heart rate, peripheral vascular resistance; assay: Haemodynamic studies in anesthetized cats (Example 17); type: in vivo, cat
Description: The haemodynamic effects of KWD2058 and terbutaline were studied in anesthetized cats after i.v. injection in the left femoral vein. Three experiments were done. The effects on arterial mean pressure, pulse pressure (right carotid artery) and heart rate were recorded.
To study the effect of the compounds on the peripheral vascular resistance, constant flow was arranged in the right hind limb on two cats by means of a Sigma motor pump connected to arteria femoralis. Injections were made intra-arterially and variations in the peripheral resistance were recorded as pressure changes.

[5] = Toxicity study in mice (Example 18); type: in vivo; conditions: mouse, in vivo, mice (NMRI, male), 24 hours, read-out: LD 50 + Standard error
Description: (§1) The toxicity was studied in mice (NMRI, male, 18-28 g) 24 hours after i.v. and oral administration. The animals were observed during five days. No further deaths occurred.

mice = assay: Toxicity study in mice (Example 18); type: in vivo; conditions: indicated by higher oral toxicity
Description: as §1

[6] = system: histamine induced bronchoconstriction; assay: Bronchospasmolytic effect in vivo, Konzett and Rossler (Example 5b); set-up: species or system guinea pig; conditions: measured as described above
Description: Orciprenaline and terbutaline were also tested in vivo according to the method described by Konzett and Rossler [Arch. Exp. Path. Pharmak. 195 (1940) page 71]. In the method of Konzett and Rossler, the animal is ventilated with a constant volume of air. When a certain pressure has been reached in the lung, the volume of air which is in excess of the pulmonary capacity will escape through the valve. This surplus of air is recorded. The testing compounds in the Konzett and Rossler method, bronchial contraction is provoked by administration of histamine. The histamine reduced the capacity of the airways, and the measured overflow increases. In order to see to what extent a test compound counteracts the histamine-induced bronchospasm, the animal is first given an injection of the test compound which is followed 3 minutes later by exposure to histamine.

isolated rabbit heart = assay: Effect on isolated heart, Langendorff preparation (Example 5d); conditions: same procedure
Description: The effect of the compound of the present invention was also studied on isolated rabbit heart (Langendorff preparation) the method used as described by Anden et al. (Acta Pharmacol. et Toxicol., 21 (1964) page 247). In this procedure, the isolated heart is mounted in a Krebs solution and the test compound is injected into it. Measurements are continuously recorded of the rate and force of contraction.
The tests using epinephrine establish a standard of comparison to evaluate subsequent test compounds in the same preparation.

[7] = system: bronchospasm induced by histamine aerosol; assay: Protecting effect against histamine aerosol in intact guinea pigs (Example 7c); type: in vivo, guinea pig; conditions: Cavia porcellus, m ± s.e., read-out: ED50 (protecting 50 per cent of the animals for more than 4 minutes)
Description: The compounds KWD2109 and KWD2025 have been compared in preventing bronchospasm induced by histamine aerosol in guinea pigs.
The drug was injected intraperitoneally 15 minutes (Table 2) or administered orally 30 minutes (Table 3) before histamine treatment. The dose of the drugs protecting 50 per cent of the animals for more than 4 minutes is denoted "ED50". In untreated animals only 1-2 percent will withstand the histamine aerosol for more than 4 minutes.
To study the duration of the effect, 2 mg/kg was administered orally to intact guinea pigs at different time intervals before the histamine treatment. Two series each including eleven groups of six animals was studied. The groups were tested in histamine aerosol 10, 20, 30, 40, 50, 60, 120, 180, 240, 300 and 360 minutes after the administration of the compound. The per cent of animals in each group protected more than 4 minutes and more than 10 minutes was determined.

[8] = system: isolated guinea pig heart; assay: Effect on isolated guinea pig heart, Langendorff (Example 7d); conditions: KWD2025 given index 1.0
Description: The isolated guinea pig heart was perfused according to Langendorff. The method used is described by Anden et al. (Acta. Pharmacol. et Toxicol. 21, 247, 1964). Contractions in the heart were recorded by means of a force displacement transducer and aa Grass polygraph Model 7. Epinephrine was used as reference. KWD2109 and KWD2025 were tested on the same preparation. The comparisons of effects were based on dose for 50 percent increase in chronotropic effect and 10 percent increase in inotropic effect.

[9] = system: isolated guinea pig auricle; assay: Dual bath preparation, effect on left auricle (Example 8a); conditions: same bath
Description: The left auricle was dissected out and mounted together with spirally-cut trachea from the same animal in a 100 ml bath in Kreb's solution (37°C.) well aereated with a mixture of oxygen (95%) and carbon dioxide (5%). The auricle was electrically stimulated with square wave pulses from a Techtronic Stimulator (voltage 2-4; duration: 10 m sec; frequency 1 per second). This is, in general, the same procedure described above in Example 5c.
Using the dual bath preparation, tests were made of the effect on the trachea and auricle of KWD2025 (of the present invention) and of the known drugs KWD2109 and epinephrine. The drug to be tested was added to the bath in the predetermined amount and allowed to act upon the organs for 10 minutes.

[10] = Acute toxicity in mice (Example 9); conditions: mouse, in vivo, iv, mice
[11] = system: right auricle from the guinea pig; assay: Dual preparation test in vitro, effect on auricle (Example 5c); conditions: slow infusion; 0.375 μg/min where stated; FIGS. 2-4
Source text: (§2) [This procedure is more fully described below in Example 5 (b)].
(§3) FIG. 2 illustrates the effect of epinephrine (EPE) and terbutaline on spirally cut trachea and right auricle from the guinea pig. Both preparations are dissected out from the same animal and run under identical experimental conditions;
(§4) Both preparations are dissected out from the same animal, and run under identical experimental conditions;
(§5) Both preparations are dissected out from the same animal and run under identical experimental conditions;
(§6) The relation between the heart stimulatory effect and bronchodilator effect was studied in vitro on auricle-trachea-preparation from the guinea pig in order to compare the effect on the heart and the effect on the bronchial muscle under identical experimental conditions. Both spontaneously bearing auricle and spirally-cut trachea were placed in the same bath in Krebs solution. Both preparations were taken from the same animal.
(§7) The compound to be tested was slowly infused into the bathing solution and the tension was measured for each of the auricle and trachael preparations.
(§8) In carrying out this dual preparation test, epinephrine was used as a reference. […] Infusion of epinephrine was made over a period of ten minutes. After washing and recovery, the test solution was infused in the same manner and the effect of the test compound was compared with the effect of epinephrine.
Referring more specifically to FIG. 2, the upper portion of each chart thereof represents the tension continuously recorded of the auricle preparation (shaded area 1 for the effect of epinephrine on the auricle, ref. no. 2 for the effect of terbutaline infused at a rate of 0.2 μg/min on the auricle, and ref. no. 3 for the effect of terbutaline infused at a rate of 0.375μg/min on the auricle).

[12] = system: spirally cut trachea from the guinea pig; assay: Dual preparation test in vitro, effect on trachea (Example 5c); conditions: slow infusion; 0.375 μg/min where stated; FIGS. 2-4
Source text: as §2, §3, §4, §5, §6, §7, §8

Row | Compound | bronchospasmolytic effect x (-)epinephrine (guinea pig trachea) | bronchospasmolytic effect in vitro relative to terbutaline (guinea pig trachea) | bronchospasmolytic effect x terbutaline [1] | direct heart effect relative to terbutaline [3] | LD50 at 24 h ([5]; iv) [mg/kg] | LD50 at 24 h ([5]; po) [mg/kg] | oral absorption in comparison with terbutaline (mice) | ED50 ([2]; ip, 0.25 h) [mg/kg] | ED50 ([2]; po, 0.5 h) [mg/kg] | effect on heart rate x terbutaline ([3]; Table 10) | other results
1 | Br.CC(C)C(=O)Oc1cc(OC(=O)C(C)C)cc(C(O)CNC(C)(C)C)c1 (stereo not drawn) [KWD2058, 1-(3',5'-diisobutyryloxyphenyl)-2-(t-butylamino)-ethanol hydrobromide] | 0.6 ± 0.2 | weaker bronchospasmolytic effect in vitro than terbutaline | 1.0 ± 0.1 | much less direct heart effect | 52 ± 4 | 2150 | improved oral absorption in comparison with terbutaline | – | – | – | ED50 ([2]; 0.5 h, oral, 30 minutes before histamine): 0.15 mg/kg; ED50 ([2]; ip, 0.25 h, i.p., 15 minutes before histamine): 1 mg/kg; protecting effect relative to terbutaline ([2]; oral): 2.5 times; oral absorption in comparison with terbutaline ([2]; seen in oral ED50, Table 9): particularly good oral absorption in comparison with terbutaline; effect on heart rate ([3]; doses up to 100 μg): no effect; effect on arterial mean pressure, pulse pressure, heart rate and peripheral vascular resistance relative to terbutaline ([4]; cat, summary): about half; arterial mean pressure, x terbutaline ([4]; i.v., anesthetized cats): 0.4+0.1 × terbutaline; heart rate, x terbutaline ([4]; i.v., anesthetized cats): 0.4±0.1 × terbutaline; pulse rate, x terbutaline ([4]; i.v., anesthetized cats, pulse pressure in text): 0.4±0.1 × terbutaline; change in peripheral resistance, x terbutaline ([4]; intra-arterial, right hind limb, constant flow): 0.4±0.1 × terbutaline
2 | CC(=O)Oc1cc(OC(C)=O)cc(C(O)CNC(C)(C)C)c1 (stereo not drawn) [KWD2037] | 0.7 | weaker bronchospasmolytic effect in vitro than terbutaline | 0.7 ± 0.1 | much less direct heart effect | 112 ± 5 | 2100 | improved oral absorption in comparison with terbutaline | 0.7 | 0.4 | 0.05 ± 0.01 | effect on force of contraction x terbutaline ([3]; Table 10): 0.03 ± 0.01
3 | Oc1cc(O)cc(C(O)CNC2CCC2)c1 (stereo not drawn) [KWD2025, 1-(3',5'-dihydroxyphenyl)-2-(cyclobutylamino)-ethanol] | – | – | – | – | – | – | – | – | – | – | bronchospasmolytic effect relative to epinephrine [6]: about 0.4 times; bronchospasmolytic effect relative to orciprenaline [6]: about 1.2 times; cardiac stimulatory effect relative to epinephrine (isolated rabbit heart): less than 0.1 times; ED50 ([7]; ip, 0.25 h, i.p., 15 minutes before histamine-aerosol): 0.6 ± 0.07 mg/kg; ED50 ([7]; po, 0.5 h, peroral, 30 minutes before histamine-aerosol): 1.7 ± 0.3 mg/kg; therapeutic index, bronchospasmolytic effect over effect on the heart (inotropic) [8]: 1.0; effect on force of contraction in auricle in concentrations relaxing the trachea [9]: relaxed the trachea without affecting the auricle; LD50 [10]: 54 mg/kg
4 | NC[C@H](O)c1ccc(O)c(O)c1 [norepinephrine, reference compound] | – | – | – | – | – | – | – | – | – | – | effect on auricle (tension) [11]: strong effect on the heart muscle; effect on trachea (relaxation) [12]: without affecting the bronchial muscles
5 | CCC(=O)Oc1cc(OC(=O)CC)cc(C(O)CNC(C)(C)C)c1 (stereo not drawn) [KWD2057] | 0.4 | weaker bronchospasmolytic effect in vitro than terbutaline | 0.5 | much less direct heart effect | 70 ± 4 | 2200 | improved oral absorption in comparison with terbutaline | 0.2 | 1 | 0.06 | –
